Here are results for 13 molecules from PubChem BioAssay AID328 (DTP/NCI, 2004).

For this assay, the system named is BDF1 mice, P388 leukemia ip, median survival T/C. The experiment in a line: NCI In Vivo Anticancer Drug Screen. Data for tumor model P388 Leukemia (intraperitoneal) in B6D2F1 (BDF1) mice. Conditions: endpoint: median survival time, higher = longer survival. Here is the method:
The antitumor activity of compounds was measured in mice bearing transplantable tumors. Survival or tumor size were measured and the results are expressed as the measurement made in the treated group (T) divided by the measurement made in the vehicle treated control group (C). The tumor model used in this assay is P388 Leukemia (intraperitoneal) in B6D2F1 (BDF1) mice

Setting [1] is: dose: 50.0 mg/kg/injection, schedule: Q01DX009 (ip), vehicle: Klucel (hydroxypropylcellulose) (HPC).
The mark [2] stands for this setting: dose: 100.0 mg/kg/injection, schedule: Q01DX009 (ip), vehicle: Klucel (hydroxypropylcellulose) (HPC).
Setting [3] is: dose: 200.0 mg/kg/injection, schedule: Q01DX009 (ip), vehicle: saline with Tween-80.
[4] abbreviates: dose: 400.0 mg/kg/injection, schedule: Q01DX009 (ip), vehicle: saline with Tween-80.
The mark [5] stands for this setting: dose: 16.0 mg/kg/injection, schedule: Q01DX009 (ip), vehicle: Klucel (hydroxypropylcellulose) (HPC).
[6] abbreviates: dose: 100.0 mg/kg/injection, schedule: Q01DX009 (ip), vehicle: saline with Tween-80.
[7] abbreviates: dose: 12.5 mg/kg/injection, schedule: Q01DX009 (ip), vehicle: Klucel (hydroxypropylcellulose) (HPC).

Several values for one entry are separate records, joined by “and”; a condition that tells them apart may be missing. Equal values may be shown once. Inconclusive results and toxic doses are left out.

Consider `Cc1[nH]c(=O)[nH]c(=O)c1C`, for which the T/C was 104 % of control under setting [1]; 109 % of control under setting [2]; 104 % of control (dose: 200.0 mg/kg/injection, schedule: Q01DX009 (ip), vehicle: Klucel (hydroxypropylcellulose) (HPC)).
On to `O=c1[nH]cc(F)c(=O)n1C1OC(CO)C(O)C1O` (configuration not stated), for which the T/C is, setting by setting: (dose: 0.75 mg/kg/injection, schedule: Q01DX009 (ip), vehicle: saline) 169 % of control and 180 % of control; (dose: 1.5 mg/kg/injection, schedule: Q01DX009 (ip), vehicle: saline) 162 % of control and 217 % of control; (dose: 3.0 mg/kg/injection, schedule: Q01DX009 (ip), vehicle: saline) 230 % of control and 188 % of control; (dose: 6.0 mg/kg/injection, schedule: Q01DX009 (ip), vehicle: saline) 100 % of control.
With `Cc1ccccc1NC=O`, the T/C is, setting by setting: (dose: 90.0 mg/kg/injection, schedule: Q01DX009 (ip), vehicle: saline with Tween-80) 103 % of control; (dose: 100.0 mg/kg/injection, schedule: Q04DX003 (ip), vehicle: saline with Tween-80) 95 % of control; (dose: 135.0 mg/kg/injection, schedule: Q01DX009 (ip), vehicle: saline with Tween-80) 107 % of control; under setting [3], 99 % of control; (dose: 200.0 mg/kg/injection, schedule: Q04DX003 (ip), vehicle: saline with Tween-80) 104 % of control; (dose: 300.0 mg/kg/injection, schedule: Q01DX009 (ip), vehicle: saline with Tween-80) 107 % of control. For the same molecule, the T/C under setting [4] is 120 % of control and the T/C (dose: 400.0 mg/kg/injection, schedule: Q04DX003 (ip), vehicle: saline with Tween-80) is 116 % of control.
With `CCN(CC)CCOC(=O)c1ccc([N+](=O)[O-])c2ccccc12`, the T/C runs as follows: (dose: 50.0 mg/kg/injection, schedule: Q01DX005 (ip), vehicle: saline with Tween-80) 98 % of control; (dose: 100.0 mg/kg/injection, schedule: Q01DX005 (ip), vehicle: saline with Tween-80) 88 % of control; (dose: 200.0 mg/kg/injection, schedule: Q01DX005 (ip), vehicle: saline with Tween-80) 88 % of control.
With `C=C(C)[C@H]1Cc2c(ccc3c2O[C@@H]2COc4cc(OC)c(OC)cc4[C@@H]2C3=O)O1`, the T/C (dose: 4.0 mg/kg/injection, schedule: Q01DX010 (ip), vehicle: saline) is 109 % of control; the T/C (dose: 10.0 mg/kg/injection, schedule: Q01DX009 (ip), vehicle: saline) is 95 % of control; the T/C (dose: 20.0 mg/kg/injection, schedule: Q01DX009 (ip), vehicle: saline) is 155 % of control; the T/C (dose: 40.0 mg/kg/injection, schedule: Q01DX009 (ip), vehicle: saline) is 120 % of control.
With `CC(C)=CCOc1ccc2ccc(=O)oc2c1`, the T/C is 100 % of control (dose: 4.0 mg/kg/injection, schedule: Q01DX009 (ip), vehicle: Klucel (hydroxypropylcellulose) (HPC)); 98 % of control (dose: 8.0 mg/kg/injection, schedule: Q01DX009 (ip), vehicle: Klucel (hydroxypropylcellulose) (HPC)); 108 % of control under setting [5]; 90 % of control (dose: 32.0 mg/kg/injection, schedule: Q01DX009 (ip), vehicle: Klucel (hydroxypropylcellulose) (HPC)).
For the molecule `Oc1cc2c(cc1O)C1c3ccc(O)c(O)c3OCC1(O)C2` (configuration not stated), the T/C by setting is: (dose: 50.0 mg/kg/injection, schedule: Q01DX009 (ip), vehicle: saline with Tween-80) 97 % of control; under setting [6], 118 % of control; under setting [3], 102 % of control; under setting [4], 103 % of control.
As for `O=NN(CCCl)C(=O)NC1CCCCC1`, the T/C was 116 % of control (dose: 2.4 mg/kg/injection, schedule: Q01DX009 (ip), vehicle: Klucel (hydroxypropylcellulose) (HPC)); 164 % of control (dose: 3.6 mg/kg/injection, schedule: Q01DX009 (ip), vehicle: Klucel (hydroxypropylcellulose) (HPC)); 113 % of control (dose: 4.0 mg/kg/injection, schedule: Q01DX009 (ip), vehicle: saline with Tween-80); 229 % of control (dose: 8.0 mg/kg/injection, schedule: Q01DX009 (ip), vehicle: saline with Tween-80); 153 % of control under setting [7]; 178 % of control (dose: 12.5 mg/kg/injection, schedule: Q01DX009 (ip), vehicle: saline). Further, the T/C by setting is: under setting [5], 249 % of control; (dose: 16.0 mg/kg/injection, schedule: Q01DX009 (ip), vehicle: saline with Tween-80) 283 % of control; (dose: 25.0 mg/kg/injection, schedule: Q01DX001 (ip), vehicle: Klucel (hydroxypropylcellulose) (HPC)) 220 % of control; (dose: 25.0 mg/kg/injection, schedule: Q01DX009 (ip), vehicle: saline) 228 % of control; (dose: 30.0 mg/kg/injection, schedule: Q01DX001 (ip), vehicle: saline) 103 % of control; (dose: 32.0 mg/kg/injection, schedule: Q01DX009 (ip), vehicle: saline with Tween-80) 179 % of control. The T/C (dose: 35.0 mg/kg/injection, schedule: Q01DX009 (ip), vehicle: Klucel (hydroxypropylcellulose) (HPC)) is 103 % of control; the T/C (dose: 40.0 mg/kg/injection, schedule: Q01DX001 (ip), vehicle: saline) was 548 % of control and 183 % of control; the T/C (dose: 50.0 mg/kg/injection, schedule: Q01DX001 (ip), vehicle: Klucel (hydroxypropylcellulose) (HPC)) is 113 % of control; the T/C (dose: 50.0 mg/kg/injection, schedule: Q01DX001 (ip), vehicle: saline) was 174 % of control; the T/C (dose: 60.0 mg/kg/injection, schedule: Q01DX001 (oral), vehicle: carboxymethylcellulose (CMC)) was 526 % of control and 166 % of control; the T/C (dose: 64.0 mg/kg/injection, schedule: Q01DX009 (ip), vehicle: saline with Tween-80) was 88 % of control. Besides, the T/C was 256 % of control (dose: 70.0 mg/kg/injection, schedule: Q01DX001 (ip), vehicle: saline); 210 % of control and 219 % of control (dose: 90.0 mg/kg/injection, schedule: Q01DX001 (oral), vehicle: carboxymethylcellulose (CMC)); 219 % of control (dose: 100.0 mg/kg/injection, schedule: Q01DX001 (ip), vehicle: carboxymethylcellulose (CMC)); 173 % of control (dose: 135.0 mg/kg/injection, schedule: Q01DX001 (oral), vehicle: carboxymethylcellulose (CMC)); 526 % of control (dose: 150.0 mg/kg/injection, schedule: Q01DX001 (ip), vehicle: carboxymethylcellulose (CMC)); 236 % of control (dose: 200.0 mg/kg/injection, schedule: Q01DX001 (oral), vehicle: carboxymethylcellulose (CMC)).
For the molecule `O=C(Cn1ccc(O)cc1=O)c1ccc(Cl)s1`, the T/C reads like this: under setting [6], 98 % of control; under setting [3], 93 % of control; under setting [4], 104 % of control.
For the molecule `O=C1c2cccc3cc([N+](=O)[O-])cc(c23)C(=O)N1CCN1CCCC1`, the T/C is 157 % of control (dose: 6.25 mg/kg/injection, schedule: Q01DX009 (ip), vehicle: saline with Tween-80) and 177 % of control (dose: 12.5 mg/kg/injection, schedule: Q01DX009 (ip), vehicle: saline with Tween-80).
Take `O=C(NC(CO)Cc1ccccc1)c1ccccc1` (configuration not stated): the T/C was 102 % of control (dose: 9.0 mg/kg/injection, schedule: Q01DX009 (ip), vehicle: Klucel (hydroxypropylcellulose) (HPC)); 95 % of control (dose: 18.0 mg/kg/injection, schedule: Q01DX009 (ip), vehicle: Klucel (hydroxypropylcellulose) (HPC)); 99 % of control (dose: 36.0 mg/kg/injection, schedule: Q01DX009 (ip), vehicle: Klucel (hydroxypropylcellulose) (HPC)); 99 % of control (dose: 72.0 mg/kg/injection, schedule: Q01DX009 (ip), vehicle: Klucel (hydroxypropylcellulose) (HPC)).
`COc1ccc2c(Cc3ccccc3)cncc2c1O`: the T/C by setting is: (dose: 6.25 mg/kg/injection, schedule: Q01DX009 (ip), vehicle: Klucel (hydroxypropylcellulose) (HPC)) 99 % of control; under setting [7], 100 % of control; (dose: 25.0 mg/kg/injection, schedule: Q01DX009 (ip), vehicle: Klucel (hydroxypropylcellulose) (HPC)) 105 % of control; under setting [1], 108 % of control; under setting [2], 117 % of control.
On to `COc1cc(N(CCCl)CCCl)ccc1C=Nc1ccccc1C(=O)O`, for which the T/C by setting is: (dose: 5.0 mg/kg/injection, schedule: Q01DX009 (ip), vehicle: saline) 227 % of control; (dose: 11.9 mg/kg/injection, schedule: Q04DX003 (ip), vehicle: saline with Tween-80) 237 % of control; (dose: 18.0 mg/kg/injection, schedule: Q04DX003 (ip), vehicle: saline with Tween-80) 254 % of control; (dose: 27.0 mg/kg/injection, schedule: Q04DX003 (ip), vehicle: saline with Tween-80) 116 % of control.
